Structures are written as SMILES.

These results are taken from patent publication US7622469B2, “2,4-diamino-1,3,5-triazine derivatives” (Hamari Chemicals, Ltd., priority 2002, dated 2009).

Holding throughout (assay): Antibacterial activity test (MIC)
Holding throughout (settings): Mueller-Hinton Broth, 37° C., 20 to 24 hours

For experiment [1], the system named is MRSA 97-115. Format: cell-based, methicillin-resistant Staphylococcus aureus. The protocol: (§1) Regarding compounds obtained in respective Working Examples, in order to investigate antibacterial activity, minimal inhibitory concentration (MIC) was determined according to a standard method of Japanese Society of Chemotherapy.
(§2) As a test bacterium, nine kinds of S. aureus 209PJC, MRSA 97-115, MRSA KM 97-53, MRSA KM97-108, VRE 49, E. coli NIHJ JC-2, P. aeruginosa PAO-1, P. aeruginosa No. 12, P. aeruginosa KM97-5 were used and, as a medium, Mueller-Hinton Broth (DIFCO) was used. One platinum loop of a test bacterium was inoculated into 20 ml of a medium, and static culture was carried out at 37° C. for 16 to 20 hours, and then each bacterium species was diluted with a sterilized physiological saline to 10^5/ml, which was used as a test bacterium solution.
(§3) Then, each compound was dissolved in methanol, subjected to ½ stepwise dilution with a medium to prepare a medium for measuring sensitivity, and each 2 ml was dispensed into a test tube. A compound concentration in a medium was adjusted to 100 μg/ml and its 2^n-fold (n=−10 to 1).
(§4) Numerical values in Tables represent MIC expressed in μg/ml unit.

The test system of experiment [2] is E. coli NIHJ JC-2. Format: cell-based. The protocol: as §1, §2, §3, §4
Experiment [3] relates to S. aureus 209PJC. It is filed as cell-based. The procedure:
as §1, §2, §3, §4

Experiment [4] relates to P. aeruginosa PAO-1. Format: cell-based. The protocol: as §1, §2, §3, §4

Regarding `CCCCCCCCCCC1N=C(N)NC(Nc2ccc(F)c(F)c2F)=N1.Cl` (stereo not shown) [compound 32], the “minimal inhibitory concentration (MIC)” value in experiment [1] turned out to be 1.6 µg/mL; in experiment [2], 25 µg/mL; in experiment [3] it was 0.8 µg/mL; in experiment [4], 100 µg/mL.
Take `CCCCCCCCCCC1N=C(N)N=C(N)N1Cc1ccc(C(F)(F)F)cc1.Cl` (racemic) [18(2)]: the “minimal inhibitory concentration (MIC)” value in experiment [1] is 1.6 µg/mL; in experiment [2] it was 6.3 µg/mL; in experiment [3], 0.8 µg/mL; in experiment [4], 12.5 µg/mL.
Consider `CCCCCCCCCNC1=NC(C)(C)N(c2ccccc2)C(N)=N1.Cl` [compound 61], for which the “minimal inhibitory concentration (MIC)” value in experiment [1] was 6.3 µg/mL; in experiment [2], greater than 100 µg/mL; in experiment [3], 6.3 µg/mL; in experiment [4] it was greater than 100 µg/mL.
As to `CCCCCCCCCCNC1=NC(C)(C)N=C(NCc2ccc(OC)cc2)N1.Cl` [Example 1], the “minimal inhibitory concentration (MIC)” value in experiment [1] was 0.4 µg/mL; in experiment [2] it was 12.5 µg/mL; in experiment [3], 0.4 µg/mL; in experiment [4], 25 µg/mL.
With `CCCCCCCCNC1=NC(C)(C)N=C(NCc2ccc(O)cc2)N1.Cl` [compound 8], the “minimal inhibitory concentration (MIC)” value in experiment [1] was 3.1 µg/mL; in experiment [2], 25 µg/mL; in experiment [3] it was 0.4 µg/mL; in experiment [4] it was greater than 100 µg/mL.
As for `CCCCCCCCCC1N=C(N)N=C(N)N1c1ccc(F)c(F)c1F.Cl` (stereo not shown) [compound 30], the “minimal inhibitory concentration (MIC)” value in experiment [1] was determined as 3.1 µg/mL; in experiment [2] it was 25 µg/mL; in experiment [3] it was 1.6 µg/mL; in experiment [4], 50 µg/mL.
The corresponding values for `CCCCCCCCCCNC1=NC(C)(C)N=C(NCCc2ccccc2)N1.O=C(O)CC(=O)O` [compound 55] are 0.8 µg/mL, 12.5 µg/mL, 0.4 µg/mL and 50 µg/mL.
The corresponding values for `CCCCCCCCCCC1N=C(N)NC(NCc2ccc(C(F)(F)F)cc2)=N1.Cl` (racemic) [18(1)] are 0.8 µg/mL, 6.3 µg/mL, 0.4 µg/mL and 25 µg/mL.
As for `CCCCCCCCC1N=C(N)NC(Nc2ccc(OC(F)(F)F)cc2)=N1.Cl` (stereo not shown) [compound 27], the “minimal inhibitory concentration (MIC)” value in experiment [1] is 1.6 µg/mL; in experiment [2], 25 µg/mL; in experiment [3], 1.6 µg/mL; in experiment [4], greater than 100 µg/mL.
Regarding `CC(=O)O.CCCCCCCCNC1=NC(C)(C)N=C(NCCCCCCCC)N1` [compound 66], the “minimal inhibitory concentration (MIC)” value in experiment [1] is 1.6 µg/mL; in experiment [2], 100 µg/mL; in experiment [3], 0.8 µg/mL; in experiment [4], greater than 100 µg/mL.
For `CCCCCCCCCCCCC1N=C(N)N=C(N)N1CCc1ccc(OC)cc1.Cl` (racemic) [15(2)] the same measures were 1.6 µg/mL, 50 µg/mL, 0.4 µg/mL and 50 µg/mL.
For `CCCCCCCCCCCC1N=C(N)NC(Nc2ccc(F)cc2F)=N1.Cl` (racemic) [compound 36] the same measures were 1.6 µg/mL, greater than 100 µg/mL, 0.8 µg/mL and greater than 100 µg/mL.
In the case of `CC(=O)O.CCCCCCCNC1=NC(C)(C)N=C(NC(C)(C)CC(C)(C)C)N1` [compound 71], the “minimal inhibitory concentration (MIC)” value in experiment [1] was determined as 0.8 µg/mL; in experiment [2], 100 µg/mL; in experiment [3], 0.8 µg/mL; in experiment [4], 100 µg/mL.
As for `CC(=O)O.CCCCCCCNC1=NC(C)(C)N=C(NCc2ccc(C)cc2)N1` [compound 59], the “minimal inhibitory concentration (MIC)” value in experiment [1] stood at 1.6 µg/mL; in experiment [2] it was 25 µg/mL; in experiment [3] it was 0.8 µg/mL; in experiment [4], 50 µg/mL.
The corresponding values for `CCCCCCCCCCCCC1N=C(N)NC(NCc2ccccc2)=N1.Cl` (racemic) [compound 44] are 0.8 µg/mL, 1.6 µg/mL, 0.2 µg/mL and 12.5 µg/mL.
The corresponding values for `CCCCCCCCCC1N=C(N)NC(Nc2ccc(C(C)(C)C)cc2)=N1.Cl` (stereo not shown) [compound 23] are 1.6 µg/mL, greater than 100 µg/mL, 0.8 µg/mL and greater than 100 µg/mL.
For `CCCCCCCCNC1=NC(C)(C)N(c2cccc3ccccc23)C(N)=N1.Cl` [compound 63] the same measures were 6.3 µg/mL, 100 µg/mL, 6.3 µg/mL and 100 µg/mL.
`CCCCCCCCCCCCC1N=C(N)N=C(N)N1Cc1ccc(OC)cc1.Cl` (racemic) [16(2)]: the “minimal inhibitory concentration (MIC)” value was found to be 1.6 µg/mL in experiment [1], 25 µg/mL in experiment [2], 0.4 µg/mL in experiment [3] and 25 µg/mL in experiment [4].
Consider `CCCCCCCCCCCNC1=NC(C)(C)N=C(NCc2ccccc2)N1.O=C(O)C(=O)O` [compound 51], for which the “minimal inhibitory concentration (MIC)” value in experiment [1] worked out at 0.8 µg/mL; in experiment [2], 50 µg/mL; in experiment [3], 0.4 µg/mL; in experiment [4], 100 µg/mL.
On to `CCCCCCCCCCCNC1=NC(C)(C)N=C(NCCc2ccc(OC)cc2)N1.Cl` [compound 6], for which the “minimal inhibitory concentration (MIC)” value in experiment [1] was found to be 1.8 µg/mL; in experiment [2], 57 µg/mL; in experiment [3] it was 0.9 µg/mL; in experiment [4] it was 114 µg/mL.
For `CCCCCCCCCCCCC1N=C(N)NC(NCc2ccc(OC)cc2)=N1.Cl` (racemic) [16(1)], the “minimal inhibitory concentration (MIC)” value worked out at 1.6 µg/mL in experiment [1], 25 µg/mL in experiment [2], 0.4 µg/mL in experiment [3] and 50 µg/mL in experiment [4].
The corresponding values for `CCCCCCCCC1N=C(N)N=C(N)N1c1cc(C(C)(C)C)ccc1OC.Cl` (stereo not shown) [compound 24] are 1.6 µg/mL, 50 µg/mL, 1.6 µg/mL and 50 µg/mL.
